One assay concerns the target T1, Steryl-sulfatase (Homo sapiens, UniProt P08842).
T1 sequence (P08842 whole entry): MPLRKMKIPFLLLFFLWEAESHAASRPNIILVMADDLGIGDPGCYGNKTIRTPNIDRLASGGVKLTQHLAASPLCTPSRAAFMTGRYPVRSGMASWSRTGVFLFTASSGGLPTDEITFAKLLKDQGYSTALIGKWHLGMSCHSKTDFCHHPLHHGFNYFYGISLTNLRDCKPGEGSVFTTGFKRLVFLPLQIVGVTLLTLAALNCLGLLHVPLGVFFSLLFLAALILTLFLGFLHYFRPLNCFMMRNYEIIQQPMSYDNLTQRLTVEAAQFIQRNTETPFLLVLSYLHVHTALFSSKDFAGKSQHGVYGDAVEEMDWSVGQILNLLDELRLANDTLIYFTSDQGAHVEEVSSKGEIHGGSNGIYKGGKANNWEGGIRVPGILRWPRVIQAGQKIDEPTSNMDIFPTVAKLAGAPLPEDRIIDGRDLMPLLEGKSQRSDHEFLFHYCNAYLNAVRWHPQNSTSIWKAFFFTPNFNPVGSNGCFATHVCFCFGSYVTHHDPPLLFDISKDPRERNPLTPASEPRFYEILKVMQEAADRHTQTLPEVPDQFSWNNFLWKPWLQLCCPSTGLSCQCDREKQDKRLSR
Briefly: Inhibition of Estrone sulfatase.

For assay [1], the target named is T2, Steryl-sulfatase (Homo sapiens) (UniProt P08842).
T2 sequence (whole entry): T1 sequence (P08842 whole entry)
Description: (§1) Relative potency against Estrone sulfatase

The target of assay [2] is T2, Steryl-sulfatase (Homo sapiens). The source holds these as a separate data set.
The target is the same in assay [3]. Briefly: Relative potency compared to COUMATE against Estrone sulfatase.
Assay [4] shares this target. The experiment in a line: Relative potency compared to EMATE against Estrone sulfatase.
Assay [5] shares this target. The source holds these as a separate data set.
Description: as §1

Each structure is given as a SMILES string.

On to `Cc1cc(=O)oc2cc(OS(N)(=O)=O)ccc12`, for which the IC50 – broadly, the midpoint of a concentration-inhibition curve – against Steryl-sulfatase was determined as 12 µM. For the same compound, the Potency turned out to be 1 in assay [1] and 0.0417 in assay [2].

For `CCCCCCC(=O)c1ccc(OS(N)(=O)=O)cc1`, on Steryl-sulfatase, half-maximal inhibition (IC50) was put at 5 µM. Also, the Potency was found to be 2.4 in assay [3] and 0.1 in assay [4].

The compound `NS(=O)(=O)Oc1ccc(C=O)cc1` registered an IC50 against Steryl-sulfatase of 254 µM. Further, the Potency was 0.0472 in assay [3] and 0.0019 in assay [4].

The compound `CCCCCCCC(=O)c1ccc(OS(N)(=O)=O)cc1` had an IC50 on Steryl-sulfatase of 5.6 µM. The Potency in assay [3] was determined as 2.14; in assay [4], 0.0893.

The compound `CCCCC(=O)c1ccc(OS(N)(=O)=O)cc1` yielded an IC50 at Steryl-sulfatase of 20.9 µM. Further, the Potency in assay [3] came to 0.574; in assay [4], 0.0239.

Take `CCCCCCCCCC(=O)c1ccc(OS(N)(=O)=O)cc1`: the midpoint of inhibition against Steryl-sulfatase, the IC50, lay at 13 µM. For the same compound, the Potency is 0.923 in assay [3] and 0.0385 in assay [4].

For the compound `NS(=O)(=O)Oc1ccc(C(=O)Cc2ccccc2)cc1`, the IC50 on Steryl-sulfatase came to 33 µM. Further, the Potency in assay [3] amounted to 0.364; in assay [4], 0.0152.

For `CC(=O)c1ccc(OS(N)(=O)=O)cc1`, 302 µM corresponded to half-maximal inhibition against Steryl-sulfatase (IC50). The figures for the Potency in assay [3] and in assay [4] were 0.0397 and 0.0016, respectively.

Compound `NS(=O)(=O)Oc1ccc(C(=O)c2ccccc2)cc1` registered an IC50 against Steryl-sulfatase of 63 µM. For the same compound, the Potency in assay [3] stood at 0.191; in assay [4] it was 0.0079.

`CCCC(=O)c1ccc(OS(N)(=O)=O)cc1` yielded an IC50 against Steryl-sulfatase of 39.8 µM. Moreover, the Potency in assay [3] is 0.301; in assay [4], 0.0126.

Turning to `NS(=O)(=O)Oc1ccc(C(=O)/C=C/c2ccccc2)cc1`, the IC50 against Steryl-sulfatase came to 263 µM. Further, the Potency in assay [3] was determined as 0.0456; in assay [4], 0.0019.

On Steryl-sulfatase, `CCCCCCCCC(=O)c1ccc(OS(N)(=O)=O)cc1` displayed an IC50 of 3.4 µM. The Potency came out at 3.53 in assay [3] and 0.147 in assay [4].

Take `C[C@]12CC[C@@H]3c4ccc(OS(N)(=O)=O)cc4CCC3[C@@H]1CCC2=O` (single isomer, unassigned) [EMATE]: half-maximal inhibition at Steryl-sulfatase (IC50) was put at 0.5 µM. The Potency in assay [5] is 1; in assay [3], 24.

The values are drawn from ChEMBL document CHEMBL1134001, “Novel inhibitors of the enzyme estrone sulfatase (ES)” (Bioorg Med Chem Lett, 2001).
